According to patent US20240366539A1, “METHODS FOR TREATING AUTISM SPECTRUM DISORDERS” (INSTITUT NATIONAL DE LA SANTÉ ET DE LA RECHERCHE MÉDICALE, priority 2021, published 2024):

How the values were obtained:
[1] = system: Oprm1^−/− mice; experiment: Tail-immersion test; type: in vivo, mouse; conditions: 50° C., NaBr 70 mg/kg, VU0155041 1 mg/kg, alone or combined, chronic
Experimental: (§1) Mice were treated with vehicle (NaCl 0.9%; ip, 10 or 20 ml/kg), NaBr (Sigma-Aldrich, Saint-Quentin Fallavier, France) administered either chronically (once a day, 10, 30, 70, 125, 250 and 500 mg/kg; i.p. or per os, in a volume of 20 ml/kg—except for combination with VU0155041: […]) or acutely (250 mg/kg, 20 ml/kg), KBr (Sigma-Aldrich, Saint-Quentin Fallavier, France; 145 mg/kg; i.p., 20 ml/kg), bumetanide (R&D systems, Minneapolis, USA, 0.5 and 2 mg/kg; i.p., 20 ml/kg) or VU0155041 (Cayman Chemicals, Ann Arbor, USA, once a day, i.p., 1 mg/kg, 10 ml/kg). […] When treatment was given chronically, behavioral testing started 8 days after beginning of daily administration. Treatment was maintained for 8 to 18 consecutive days (see timelines in FIGS. 1 and 4), allowing thorough behavioral phenotyping. On testing days, or when treatment was given acutely, drugs (or vehicle) were administered 30 min before behavioral assays.
Tail-immersion test. Nociceptive thresholds were assessed by immersing the tail of the mice (5 cm from the tip) successively into water baths at 48° C., 50° C. and 52° C. The latency to withdraw the tail was measured at each temperature, with a cutoff of 10 s.

[2] = system: Fmr1^−/− mice; experiment: Three-chamber social preference test; type: in vivo, mouse; conditions: chronic NaBr 250 mg/kg once daily
Experimental: as §1
(§2) Three-chamber social preference test. The test apparatus consisted of a transparent acrylic box (exterior walls blinded with black plastic film); partitions divided the box into three equal chambers (40×20×22.5 cm). Two sliding doors (8×5 cm) allowed transitions between chambers. Cylindrical wire cages (18×9 cm, 0.5 cm diameter-rods spaced 1 cm apart) were used to contain the mouse interactor and object (soft-toy mouse). The test was performed in low-light conditions (15 lx) to minor anxiety. Stimulus wild-type mice were habituated to confinement in wire cages for 2 days before the test (20 min/day). On testing day, the experimental animal was introduced to the middle chamber and allowed to explore the whole apparatus for a 10-min habituation phase (wire cages empty) after the sliding doors were raised. The experimental mouse was then confined back in the middle-chamber while the experimenter introduced an unfamiliar wild type age and sex-matched animal into a wire cage in one of the side-chambers and a soft toy mouse (8×10 cm) in the second wire cage as a control for novelty. Then the experimental mouse was allowed to explore the apparatus for a 10-min interaction phase. The time spent in each chamber, the time spent in nose contact with each wire cage (empty: habituation; containing a mouse or a toy: interaction), as well as the number of these nose contacts were scored a posteriori on video recordings using an ethological keyboard (Labwatcher®, View Point, Lyon, France) by trained experimenters. […] The relative position of stimulus mice (versus toy) was counterbalanced between groups.
(§3) To this purpose, we evaluated the effects of chronic NaBr administration at the dose of 250 mg/kg on autism-sensitive behaviors in these lines (FIG. 3A).

[3] = system: Shank3^Δex13-16−/− mice; experiment: Three-chamber social preference test; type: in vivo, mouse; conditions: Shank3Δex13-16−/− mice; chronic NaBr 250 mg/kg once daily
Experimental: as §1, §2, §3

[4] = system: Oprm1^−/− mice; experiment: Y-maze exploration; type: in vivo, mouse; conditions: chronic NaBr 10-500 mg/kg or bumetanide 0.5 and 2 mg/kg
Experimental: as §1
Y-maze exploration. Spontaneous alternation behavior was used to assess perseverative behavior (65-67). Each Y-maze consisted of three connected Plexiglas arms (15×15×17 cm) covered with distinct wall patterns (15 lx). Floors were covered with lightly sprayed fresh sawdust to limit anxiety. Each mouse was placed at the center of a maze and allowed to freely explore this environment for 5 min. The pattern of entries into each arm was quoted on video-recordings. Spontaneous alternations (SPA), i.e. successive entries into each arm forming overlapping triplet sets, alternate arm returns (AAR) and same arm returns (SAR) were scored, and the percentage of SPA, AAR and SAR was calculated as following: total/(total arm entries−2)*100.

[5] = molecular target: T1, rat mGlu4 receptor (Rattus norvegicus, UniProt P31423); experiment: IP1 accumulation assay, mGlu4 signaling under glutamate stimulation; type: cell-based
T1 construct: expressed in transfected cells
Experimental: Human embryonic kidney (HEK) 293 cells were transiently transfected with rat mGlu4 receptor by electroporation together with a chimeric Gi/Gq protein to allow phospholipase activation and EAAC1, a glutamate transporter, to avoid influence of extracellular glutamate. […] 96-well plate (Greiner Bio-One) at the density of 100,000 cells per well and for IPOne assay in a PLO-coated black 96-well plate (Greiner Bio-One) at the density of 50,000 cells per well. Cells were cultured in DMEM (Gibco™, Life Technologies), supplemented with 10% fetal bovine serum. Medium was changed by GlutaMAX (Gibco™, Life Technologies) to reduce extracellular glutamate concentration 3 h before experiment. […]
IP1 accumulation assay: Inositol monophosphate accumulation was determined using the IP-One HTRF (Homogenous Time Resolved Fluorescence) kit (Cisbio Bioassays, Perkin Elmer, Codolet, France) according to the manufacturer's recommendations (72). […]
Data were analyzed using Prism 6 software (GraphPad Software, San Diego, CA, USA). […] Statistical differences between pEC50, ΔpEC50 and Emax were determined using a one-way analysis of variance followed by Tukey's post-test.
We measured mGlu4 signaling under glutamate stimulation in HEK293T cells transiently expressing mGlu4 receptors and Gαqi9, a Gi/Gq chimeric G-protein (57) that allows mGlu4 to activate the phosphoinositide pathway.

[6] = stated in conclusion, no data; cited from earlier work
[7] = system: Oprm1^−/− mice; experiment: Novelty-suppressed feeding; type: in vivo, mouse
Experimental: as §1
Novelty-suppressed feeding. Novelty-suppressed feeding (NSF) was measured in 24-hr food-deprived mice, isolated in a standard housing cage for 30 min before individual testing. Three pellets of ordinary lab chow were placed on a white tissue in the center of each arena, lit at 60 lx. Each mouse was placed in a corner of an arena and allowed to explore for a maximum of 15 min. Latency to feed was measured as the time necessary to bite a food pellet. Immediately after an eating event, the mouse was transferred back to home cage (free from cage-mates) and allowed to feed on lab chow for 5 min. Food consumption in the home cage was measured.

[8] = system: Oprm1^−/− mice; experiment: Marble-burying; type: in vivo, mouse
Experimental: as §1
Marble-burying. Marble burying was used as a measure of perseverative behavior (68). Mice were introduced individually in transparent cages (21×11×17 cm) containing 20 glass marbles (diameter: 1.5 cm) evenly spaced on 4-cm deep fresh sawdust. To prevent escapes, each cage was covered with a filtering lid. Light intensity in the room was set at 40 lux. The animals were removed from the cages after 15 min, and the number of marbles buried more than half in sawdust was quoted.

T1 sequence (P31423 33-912): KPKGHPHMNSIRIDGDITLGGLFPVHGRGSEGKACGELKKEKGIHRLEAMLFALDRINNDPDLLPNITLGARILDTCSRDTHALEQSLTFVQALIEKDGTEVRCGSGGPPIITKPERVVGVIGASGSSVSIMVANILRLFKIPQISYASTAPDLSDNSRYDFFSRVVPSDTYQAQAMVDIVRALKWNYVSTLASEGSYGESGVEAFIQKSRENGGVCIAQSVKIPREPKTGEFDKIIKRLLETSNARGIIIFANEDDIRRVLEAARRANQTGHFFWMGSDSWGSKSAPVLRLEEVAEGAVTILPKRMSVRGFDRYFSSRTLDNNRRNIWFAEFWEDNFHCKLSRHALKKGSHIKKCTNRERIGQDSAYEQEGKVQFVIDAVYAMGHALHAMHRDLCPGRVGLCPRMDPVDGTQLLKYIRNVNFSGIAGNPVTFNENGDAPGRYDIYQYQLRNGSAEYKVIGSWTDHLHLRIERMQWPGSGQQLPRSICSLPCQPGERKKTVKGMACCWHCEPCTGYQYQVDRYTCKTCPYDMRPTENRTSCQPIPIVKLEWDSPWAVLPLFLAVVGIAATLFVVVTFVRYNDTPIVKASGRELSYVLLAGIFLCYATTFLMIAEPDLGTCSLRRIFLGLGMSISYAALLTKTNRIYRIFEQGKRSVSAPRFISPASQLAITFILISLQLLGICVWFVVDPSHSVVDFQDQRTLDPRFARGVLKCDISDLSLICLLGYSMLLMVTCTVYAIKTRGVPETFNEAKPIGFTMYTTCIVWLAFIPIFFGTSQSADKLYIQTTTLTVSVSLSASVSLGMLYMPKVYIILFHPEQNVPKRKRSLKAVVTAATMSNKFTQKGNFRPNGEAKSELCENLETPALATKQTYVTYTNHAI

## [Br-].[Na+] [NaBr, sodium bromide]
[1]
  flicking latency (nociceptive threshold): ineffective
[2]
  duration of nose contacts with the mouse versus the object: making longer nose contacts with the mouse versus the object
  number of nose contacts with either stimulus: without modifying the number of nose contacts
  preference ratio: normalized their preference ratio
  time exploring the mouse versus the object: restored a preference for spending more time exploring the mouse
[3]
  duration of nose contacts with the mouse versus the toy: made longer nose contacts with their congener versus the toy
  number of nose contacts: no change in the number of nose contacts
  preference ratio: increased preference ratio
  time in contact with the mouse versus the toy: spent more time in contact with the mouse
[4]
  perseverative same arm returns: suppressed perseverative same arm returns from the dose of 70 mg/kg
[4]; listed as bromide
  perseverative same arm returns: decreased the number of perseverative same arm returns in Oprm1 null mice to wild-type levels since the dose of 30 mg/kg
[5]; HEK293 cells, mGlu4 + Gαqi9, bromide
  increase in glutamate efficacy (Emax, maximal IP1 production): 60±10%
[5]; addition of Br− (so in the source)
  ΔpEC50 of glutamate between physiological Cl− concentration and after addition of Br−: 0.42±0.03
[6]
  brain penetrance: excellent
  oral bioavailability: excellent oral bioavailability
[7]; Oprm1−/− mice, chronic NaBr 70 mg/kg
  latency to feed: sufficient to normalize latency to feed
[7]; Oprm1−/− mice, chronic NaBr (since the lowest dose tested) or bumetanide
  latency to eat: normalized eating latency
[7]; both mouse lines, chronic NaBr (since the lowest dose tested) or bumetanide
  food intake: increased food intake in both mouse lines
[8]; Oprm1−/− mice, chronic NaBr 10-500 mg/kg or bumetanide 0.5 and 2 mg/kg
  excessive marble burying: did not suppressed excessive burying in mutant mice
[8]; both mouse lines, chronic NaBr
  number of buried marbles, global treatment effect: globally increased burying
